Among the data in patent US11332468B2, “Azaindole derivatives as Rho-kinase inhibitors” (CHIESI FARMACEUTICI S.p.A., priority 2017, dated 2022) are Ki values, retold here.

Bounds are passed on as bounds.

One assay addresses Rho kinase 2 (ROCK2) (Homo sapiens, UniProt O75116). Put plainly: In vitro Rho kinase inhibitory activity assay (ADP-Glo), ROCK2. The class given is biochemical. As to conditions: Ki by Cheng-Prusoff from IC50; 10 μM ATP; range of activity. The method, then: (§1) The effectiveness of compounds of the invention to inhibit Rho kinase activity can be determined in a […] assay containing 40 mM Tris pH7.5, 20 mM MgC2 0.1 mg/ml BSA, 50 μM DTT and 2.5 μM peptide substrate (Myelin Basic Protein) using an ADP-Glo kit (Promega). Compounds were dissolved in DMSO such that the final concentration of DMSO was 1% in the assay. All reactions/incubations are performed at 25° C. Compound (2 ul) and either Rho kinase 1 or 2 (4 μl) were mixed and incubated for 30 mins. Reactions were initiated by addition of ATP (4 μl) such that the final concentration of ATP in the assay was 10 μM. After a 1 hour incubation 10 μl of ADP-Glo Reagent was added and after a further 45 minute incubation 20 ul of Kinase Detection Buffer was added and the mixture incubated for a further 30 minutes. The luminescent signal was measured on a luminometer. […] Compounds were tested in dose-response format and the inhibition of kinase activity was calculated at each concentration of compound. To determine the IC50 (concentration of compound required to inhibit 50% of the enzyme activity) data were fit to a plot of % inhibition vs Log10 compound concentration using a sigmoidal fit with a variable slope and fixing the maximum to 100% and the minimum to 0%. To determine the Ki values the Cheng-Prusoff equation was utilized (Ki=IC50/(1+[S]/Km)
(ADP-Glo first removes unused ATP, then detects ADP through luciferase.)

A further assay concerns the target Rho kinase 1 (ROCK1) (Homo sapiens, UniProt Q13464). Put plainly: In vitro Rho kinase inhibitory activity assay (ADP-Glo), ROCK1. The class given is biochemical. Particulars: Ki by Cheng-Prusoff from IC50; 10 μM ATP; range of activity. How it is done:
as §1

Sequence of Rho kinase 2 (ROCK2) (O75116 whole entry): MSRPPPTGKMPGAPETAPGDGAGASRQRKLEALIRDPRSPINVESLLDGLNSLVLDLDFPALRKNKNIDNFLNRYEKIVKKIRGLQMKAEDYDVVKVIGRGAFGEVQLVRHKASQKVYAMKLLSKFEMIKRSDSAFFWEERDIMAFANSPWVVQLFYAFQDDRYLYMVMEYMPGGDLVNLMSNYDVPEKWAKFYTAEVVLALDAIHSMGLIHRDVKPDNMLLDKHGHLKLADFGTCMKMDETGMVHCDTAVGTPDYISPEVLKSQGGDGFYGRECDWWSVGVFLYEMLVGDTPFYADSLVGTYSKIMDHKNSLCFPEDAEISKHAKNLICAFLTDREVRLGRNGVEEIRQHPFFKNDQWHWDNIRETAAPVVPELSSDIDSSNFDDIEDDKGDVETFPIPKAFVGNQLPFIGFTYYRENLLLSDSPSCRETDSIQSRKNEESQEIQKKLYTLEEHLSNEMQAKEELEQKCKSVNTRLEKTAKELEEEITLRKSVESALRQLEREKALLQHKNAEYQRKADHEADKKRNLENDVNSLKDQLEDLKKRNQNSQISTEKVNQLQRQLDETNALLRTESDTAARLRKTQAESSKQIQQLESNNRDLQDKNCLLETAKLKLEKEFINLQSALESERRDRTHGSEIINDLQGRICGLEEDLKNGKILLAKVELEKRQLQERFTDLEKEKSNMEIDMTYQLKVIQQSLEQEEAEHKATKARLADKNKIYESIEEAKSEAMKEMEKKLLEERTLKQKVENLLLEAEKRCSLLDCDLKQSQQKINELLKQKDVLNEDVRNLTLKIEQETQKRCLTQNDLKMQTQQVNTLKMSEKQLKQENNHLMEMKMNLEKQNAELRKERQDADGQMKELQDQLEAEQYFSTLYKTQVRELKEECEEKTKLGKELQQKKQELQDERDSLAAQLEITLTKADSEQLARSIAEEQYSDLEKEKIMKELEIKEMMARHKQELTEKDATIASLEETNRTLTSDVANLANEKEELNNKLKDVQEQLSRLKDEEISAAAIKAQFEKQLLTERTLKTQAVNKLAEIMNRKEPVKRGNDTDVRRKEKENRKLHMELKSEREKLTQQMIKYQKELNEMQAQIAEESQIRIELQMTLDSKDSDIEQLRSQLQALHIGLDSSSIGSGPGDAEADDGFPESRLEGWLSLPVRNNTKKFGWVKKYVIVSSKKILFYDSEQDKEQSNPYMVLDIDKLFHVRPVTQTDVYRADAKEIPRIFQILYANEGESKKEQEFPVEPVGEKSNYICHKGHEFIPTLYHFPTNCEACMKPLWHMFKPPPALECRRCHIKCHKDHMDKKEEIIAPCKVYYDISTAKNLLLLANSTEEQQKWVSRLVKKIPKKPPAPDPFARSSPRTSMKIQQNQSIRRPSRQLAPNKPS
Sequence of Rho kinase 1 (ROCK1) (Q13464 whole entry): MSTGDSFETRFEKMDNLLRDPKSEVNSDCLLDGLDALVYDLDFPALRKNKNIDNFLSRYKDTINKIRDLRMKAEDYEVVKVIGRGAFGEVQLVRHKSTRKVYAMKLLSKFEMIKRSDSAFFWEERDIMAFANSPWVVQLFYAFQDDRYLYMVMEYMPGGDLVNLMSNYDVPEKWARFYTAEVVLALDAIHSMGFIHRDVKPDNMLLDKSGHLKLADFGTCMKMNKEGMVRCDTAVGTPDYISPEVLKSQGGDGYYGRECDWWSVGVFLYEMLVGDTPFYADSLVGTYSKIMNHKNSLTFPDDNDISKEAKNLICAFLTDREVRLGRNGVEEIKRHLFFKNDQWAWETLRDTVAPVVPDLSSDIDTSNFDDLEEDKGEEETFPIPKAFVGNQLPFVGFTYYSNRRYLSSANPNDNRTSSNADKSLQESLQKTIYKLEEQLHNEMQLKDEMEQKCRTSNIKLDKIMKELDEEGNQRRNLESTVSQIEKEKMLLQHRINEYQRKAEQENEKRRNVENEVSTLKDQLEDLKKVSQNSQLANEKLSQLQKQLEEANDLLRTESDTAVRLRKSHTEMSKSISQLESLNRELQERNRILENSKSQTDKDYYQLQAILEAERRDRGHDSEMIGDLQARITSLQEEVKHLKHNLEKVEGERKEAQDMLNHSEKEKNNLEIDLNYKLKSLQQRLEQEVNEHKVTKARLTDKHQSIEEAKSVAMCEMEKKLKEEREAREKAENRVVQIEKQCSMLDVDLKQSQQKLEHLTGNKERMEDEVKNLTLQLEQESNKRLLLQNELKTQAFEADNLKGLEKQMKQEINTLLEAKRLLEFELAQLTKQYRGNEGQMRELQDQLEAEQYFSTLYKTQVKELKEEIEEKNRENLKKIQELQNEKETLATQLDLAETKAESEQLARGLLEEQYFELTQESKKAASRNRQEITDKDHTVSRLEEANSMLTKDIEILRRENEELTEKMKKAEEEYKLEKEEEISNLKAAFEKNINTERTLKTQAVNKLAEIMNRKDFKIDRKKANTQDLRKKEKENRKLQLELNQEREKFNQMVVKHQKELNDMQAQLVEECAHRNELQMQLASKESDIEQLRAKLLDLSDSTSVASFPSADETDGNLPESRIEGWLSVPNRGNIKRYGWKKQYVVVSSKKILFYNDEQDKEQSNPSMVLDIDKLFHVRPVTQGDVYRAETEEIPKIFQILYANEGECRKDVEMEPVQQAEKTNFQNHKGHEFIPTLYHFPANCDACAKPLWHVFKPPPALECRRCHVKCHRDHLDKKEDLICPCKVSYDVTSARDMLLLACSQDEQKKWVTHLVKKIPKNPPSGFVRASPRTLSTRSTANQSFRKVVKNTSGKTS

For the compound `Cc1c[nH]c2nccc(Oc3ccc(C4CCCN4)cc3)c12` (single isomer, unassigned) [Example 18A, 3-methyl-4-(4-(pyrrolidin-2-yl)phenoxy)-1H-pyrrolo[2,3-b]pyridine], the Ki – broadly, a measure of affinity in units of concentration, obtained from inhibition or displacement – was < 5 nM on Rho kinase 2 (ROCK2) and 5 to 50 nM on Rho kinase 1 (ROCK1).
For `Cc1c[nH]c2nccc(Oc3ccc(CN4CCN(C)CC4)cc3)c12` [Example 33, 3-methyl-4-(4-((4-methylpiperazin-1-yl)methyl)phenoxy)-1H-pyrrolo[2,3-b]pyridine], in that order: 5 to 50 nM and > 50 nM.
For `Cc1c[nH]c2nccc(Oc3ccc4c(c3)CNC4)c12` [Example 2, 4-(isoindolin-5-yloxy)-3-methyl-1H-pyrrolo[2,3-b]pyridine], the Ki on Rho kinase 2 (ROCK2) and on Rho kinase 1 (ROCK1) was < 5 nM each time.
As to `Cc1c[nH]c2nccc(Oc3ccc(CN4CCC5(CCNC5)C4)cc3)c12` (stereo not drawn) [Example 32, 4-(4-(2,7-diazaspiro[4.4]nonan-2-ylmethyl)phenoxy)-3-methyl-1H-pyrrolo[2,3-b]pyridine], the Ki at Rho kinase 2 (ROCK2) and on Rho kinase 1 (ROCK1) was 5 to 50 nM throughout.
Take `Cc1c[nH]c2nccc(Oc3ccc4c(c3)CN[C@@H](CO)C4)c12` [Example 39, (R)-(7-((3-Methyl-1H-pyrrolo[2,3-b]pyridin-4-yl)oxy)-1,2,3,4-tetrahydroisoquinolin-3-yl)methanol]: the Ki at Rho kinase 2 (ROCK2) and on Rho kinase 1 (ROCK1) was < 5 nM each time.
As for `Cc1c[nH]c2nccc(Oc3ccc(CNC4CCN(C)CC4)cc3)c12` [Example 30, 1-methyl-N-(4-((3-methyl-1H-pyrrolo[2,3-b]pyridin-4-yl)oxy)benzyl)piperidin-4-amine], the Ki at Rho kinase 2 (ROCK2) and at Rho kinase 1 (ROCK1) was 5 to 50 nM each time.
